# Measured values as given in ChEMBL document CHEMBL1201862, “PubChem BioAssay data set” (2004).
#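 Five compound concentrations were applied to cells in 96-well plates for 48 hours; endpoints were derived by simple linear interpolation of the resulting dose-response curve. At the GI50, growth is halved.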 Activity calls are given as the source filed them. Rule as the data show it: active = GI50 up to about 1.1 µM and inactive = higher.
# Assays:
# Experiment in all cases: DTP human tumour cell line panel, 48 h
# [1] = system: NCI-H460
# [2] = system: SN12C
# [3] = system: T47D
# [4] = system: NCI/ADR-RES
# [5] = system: UO-31
# [6] = system: OVCAR-3
# [7] = system: PC-3
# [8] = system: HCT-15
# [9] = system: EKVX
# [10] = system: NCI-H226
# [11] = system: TK-10
# [12] = system: SK-OV-3
# [13] = system: SF-539
# [14] = system: HOP-92
# [15] = system: RPMI-8226
# [16] = system: MOLT-4
# [17] = system: K562
# [18] = system: SNB-75
# [19] = system: OVCAR-8
# [20] = system: A498
# [21] = system: UACC-257
# [22] = system: SK-MEL-2
# [23] = system: SF-295
# [24] = system: COLO 205
# [25] = system: SR
# [26] = system: IGROV-1
# [27] = system: SF-268
# [28] = system: RXF 393
# [29] = system: A549
# [30] = system: OVCAR-4
# [31] = system: M14
# [32] = system: DU-145
# [33] = system: SK-MEL-28
# [34] = system: HCC 2998
# [35] = system: MDA-MB-231
# [36] = system: SK-MEL-5
# [37] = system: CCRF-CEM
# [38] = system: HOP-62
# [39] = system: NCI-H23
# [40] = system: MDA-N
# [41] = system: U-251
# [42] = system: SNB-19
# [43] = system: HCT-116
# [44] = system: UACC-62
# [45] = system: ACHN
# [46] = system: MDA-MB-435
# [47] = system: OVCAR-5
# [48] = system: Hs-578T
# [49] = system: BT-549
# [50] = system: CAKI-1
# [51] = system: KM12
# [52] = system: 786-0
# [53] = system: NCI-H522
# [54] = system: Malme-3M
# [55] = system: HL-60
# [56] = system: SW-620
# [57] = system: HT-29
# [58] = system: LOX IMVI
compound,measurement,setting,value
C(=C/c1ccc2nc(-c3ccc(/C=C/C=N/NC4=NCCCN4)cc3)cn2c1)/C=N/NC1=NCCCN1,GI50,[1],13.3 µM (inactive)
same,GI50,[2],> 100 µM (inactive)
same,GI50,[3],40.9 µM (inactive)
same,GI50,[4],22.1 µM (inactive)
same,GI50,[5],> 100 µM (inactive)
same,GI50,[6],> 100 µM (inactive)
same,GI50,[7],20.3 µM (inactive)
same,GI50,[8],> 100 µM
same,GI50,[9],18.8 µM (inactive)
same,GI50,[10],14.8 µM (inactive)
same,GI50,[11],19.5 µM (inactive)
same,GI50,[12],> 100 µM (inactive)
same,GI50,[13],25.5 µM (inactive)
same,GI50,[14],> 100 µM (inactive)
same,GI50,[15],0.822 µM (active)
same,GI50,[16],42.2 µM (inactive)
same,GI50,[17],4.39 µM (inactive)
same,GI50,[18],35.7 µM (inactive)
same,GI50,[19],17.6 µM (inactive)
same,GI50,[20],> 100 µM (inactive)
same,GI50,[21],10.6 µM (inactive)
same,GI50,[22],> 100 µM (inactive)
same,GI50,[23],> 100 µM (inactive)
same,GI50,[24],> 100 µM (inactive)
same,GI50,[25],31.2 µM (inactive)
same,GI50,[26],31.5 µM (inactive)
same,GI50,[27],12.2 µM (inactive)
same,GI50,[28],23.8 µM (inactive)
same,GI50,[29],10.3 µM (inactive)
same,GI50,[30],> 100 µM (inactive)
same,GI50,[31],66.4 µM (inactive)
same,GI50,[32],17.5 µM (inactive)
same,GI50,[33],> 100 µM (inactive)
same,GI50,[34],45.4 µM (inactive)
same,GI50,[35],15.2 µM (inactive)
same,GI50,[36],> 100 µM (inactive)
same,GI50,[37],35.7 µM (inactive)
same,GI50,[38],> 100 µM (inactive)
same,GI50,[39],> 100 µM (inactive)
same,GI50,[40],43.9 µM (inactive)
same,GI50,[41],16.1 µM (inactive)
same,GI50,[42],89.7 µM (inactive)
same,GI50,[43],6.81 µM (inactive)
same,GI50,[44],30.1 µM (inactive)
same,GI50,[45],46.7 µM (inactive)
same,GI50,[46],26.1 µM (inactive)
same,GI50,[47],49.9 µM (inactive)
same,GI50,[48],15.8 µM (inactive)
same,GI50,[49],> 100 µM (inactive)
same,GI50,[50],12.1 µM (inactive)
same,GI50,[51],6.31 µM (inactive)
same,GI50,[52],42.9 µM (inactive)
same,GI50,[53],9.64 µM (inactive)
C[N+]1(CCCC[N+]2(C)CCCCCCC2)CCCCCCC1,GI50,[1],> 100 µM (inactive)
same,GI50,[2],> 100 µM (inactive)
same,GI50,[3],> 100 µM (inactive)
same,GI50,[4],> 100 µM (inactive)
same,GI50,[5],> 100 µM (inactive)
same,GI50,[6],> 100 µM (inactive)
same,GI50,[7],> 100 µM (inactive)
same,GI50,[8],> 100 µM
same,GI50,[9],> 100 µM (inactive)
same,GI50,[10],> 100 µM (inactive)
same,GI50,[11],> 100 µM (inactive)
same,GI50,[54],> 100 µM (inactive)
same,GI50,[14],77.1 µM (inactive)
same,GI50,[15],> 100 µM (inactive)
same,GI50,[16],> 100 µM (inactive)
same,GI50,[17],> 100 µM (inactive)
same,GI50,[19],> 100 µM (inactive)
same,GI50,[20],> 100 µM (inactive)
same,GI50,[21],> 100 µM (inactive)
same,GI50,[22],> 100 µM (inactive)
same,GI50,[23],> 100 µM (inactive)
same,GI50,[25],> 100 µM (inactive)
same,GI50,[26],> 100 µM (inactive)
same,GI50,[27],> 100 µM (inactive)
same,GI50,[28],> 100 µM (inactive)
same,GI50,[29],> 100 µM (inactive)
same,GI50,[30],> 100 µM (inactive)
same,GI50,[55],> 100 µM (inactive)
same,GI50,[31],> 100 µM (inactive)
same,GI50,[32],> 100 µM (inactive)
same,GI50,[33],> 100 µM (inactive)
same,GI50,[35],> 100 µM (inactive)
same,GI50,[36],> 100 µM (inactive)
same,GI50,[37],> 100 µM (inactive)
same,GI50,[38],> 100 µM (inactive)
same,GI50,[39],> 100 µM (inactive)
same,GI50,[40],> 100 µM (inactive)
same,GI50,[41],> 100 µM (inactive)
same,GI50,[42],> 100 µM (inactive)
same,GI50,[43],> 100 µM (inactive)
same,GI50,[44],> 100 µM (inactive)
same,GI50,[56],> 100 µM (inactive)
same,GI50,[45],> 100 µM (inactive)
same,GI50,[46],> 100 µM (inactive)
same,GI50,[57],> 100 µM (inactive)
same,GI50,[47],> 100 µM (inactive)
same,GI50,[48],0.227 µM (active)
same,GI50,[49],> 100 µM (inactive)
same,GI50,[58],> 100 µM (inactive)
same,GI50,[50],> 100 µM (inactive)
same,GI50,[51],> 100 µM (inactive)
same,GI50,[52],> 100 µM (inactive)
same,GI50,[53],> 100 µM (inactive)
